{"source": "patent US10988774B2", "about": "“System for site-specific modification of ALS gene using CRISPR-Cas9 system for production of herbicide-resistant rice and use of same” (Institute of Crop Sciences, Chinese Academy of Agricultural …, priority 2015, dated 2021)", "key": {"wild-type rice": {"test_system": "wild-type rice", "test": "Resistance to herbicide Bispyribac-sodium, spray test, wild-type rice", "format": "in vivo, Nipponbare rice", "settings": "spray 100 μM, 36 days after spraying", "experimental": "(§1) The wild-type rice, and the T0 site-specifically modified rice of the Cas9-arm donor group with successful homologous recombination at the codons of both the 548th and 627th amino acids of ALS as obtained in step I were sprayed with Bispyribac-sodium in a concentration of 100 μM, and 30-50 days thereafter, the growth states of the plants were observed."}, "[1]": {"test_system": "T0 site-specifically modified rice of the Cas9-arm donor group (ALS W548L, S627I)", "test": "Resistance to herbicide Bispyribac-sodium, spray test, ALS site-specifically modified rice", "format": "in vivo, Nipponbare rice", "settings": "homologous recombinant rice, ALS W548L and S627I; spray 100 μM; 36 days after spraying", "experimental": "as §1"}}, "data": [{"smiles": "COc1cc(OC)nc(Oc2cccc(Oc3nc(OC)cc(OC)n3)c2C(=O)O)n1", "note": "[Bispyribac-sodium]", "values": [{"measurement": "growth state of the plants after spraying", "setting": "wild-type rice", "value": "withered"}, {"measurement": "growth state of the plants after spraying", "setting": "[1]", "value": "normal growth"}]}]}
